This note sets out measurements from ChEMBL document CHEMBL1149542, “Carbonic anhydrase inhibitors: inhibition of human, bacterial, and archaeal isozymes with benzene-1,3-disulfonamides--solution and crystallographic studies” (Bioorg Med Chem Lett, 2007).

Assay [1] deals with Methanosarcina thermophila.
Description: Inhibition of Methanosarcina thermophila gamma CA
Assay [2] deals with Helicobacter pylori.
Description: Inhibition of Helicobacter pylori alpha CA
Assay [3] deals with Helicobacter pylori. This is another data set of the same source.
Description: Inhibition of Helicobacter pylori beta CA
Assay [4] concerns the target Carbonic anhydrase 7 (Homo sapiens) (UniProt P43166).
The target of assay [5] is Carbonic anhydrase 1 (Homo sapiens) (UniProt P00915).
Sequence of Carbonic anhydrase 1 (Homo sapiens) (P00915 2-261 limits assumed): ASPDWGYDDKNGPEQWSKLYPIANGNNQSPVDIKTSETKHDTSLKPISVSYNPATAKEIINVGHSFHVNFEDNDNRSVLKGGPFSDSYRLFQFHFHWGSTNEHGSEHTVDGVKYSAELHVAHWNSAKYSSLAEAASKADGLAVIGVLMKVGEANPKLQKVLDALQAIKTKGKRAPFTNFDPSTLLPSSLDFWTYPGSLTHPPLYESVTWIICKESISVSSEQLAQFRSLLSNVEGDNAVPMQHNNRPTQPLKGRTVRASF
In assay [6] the target is Carbonic anhydrase 5A, mitochondrial (Homo sapiens) (UniProt P35218).
Sequence of Carbonic anhydrase 5A, mitochondrial (Homo sapiens) (P35218 whole entry): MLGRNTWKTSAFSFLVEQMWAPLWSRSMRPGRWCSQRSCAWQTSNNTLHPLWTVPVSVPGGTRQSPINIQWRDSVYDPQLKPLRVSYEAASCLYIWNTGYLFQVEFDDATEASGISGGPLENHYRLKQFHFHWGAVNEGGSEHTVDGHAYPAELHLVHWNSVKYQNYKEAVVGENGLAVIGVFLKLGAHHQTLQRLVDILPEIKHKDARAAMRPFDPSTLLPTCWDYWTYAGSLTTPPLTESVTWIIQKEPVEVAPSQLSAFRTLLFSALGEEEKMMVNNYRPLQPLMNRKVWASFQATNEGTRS
Assay [7] has as its target Carbonic anhydrase 5B, mitochondrial (Homo sapiens) (UniProt Q9Y2D0).
Assay [8] has as its target Carbonic anhydrase 6 (Homo sapiens) (UniProt P23280).
In assay [9] the target is Carbonic anhydrase 14 (Homo sapiens) (UniProt Q9ULX7).
Sequence of Carbonic anhydrase 14 (Homo sapiens) (Q9ULX7 whole entry): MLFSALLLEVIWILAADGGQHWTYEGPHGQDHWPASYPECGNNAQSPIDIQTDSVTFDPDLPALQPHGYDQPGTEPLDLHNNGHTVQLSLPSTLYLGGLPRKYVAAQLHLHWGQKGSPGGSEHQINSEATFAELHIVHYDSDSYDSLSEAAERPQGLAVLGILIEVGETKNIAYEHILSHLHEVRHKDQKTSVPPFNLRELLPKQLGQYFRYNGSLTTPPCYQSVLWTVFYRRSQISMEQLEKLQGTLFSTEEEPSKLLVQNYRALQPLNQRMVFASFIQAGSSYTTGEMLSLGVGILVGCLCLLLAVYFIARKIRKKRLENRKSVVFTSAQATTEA
Assay [10] deals with Carbonic anhydrase 9 (Homo sapiens) (UniProt Q16790).
Description: Inhibition of human CA9 catalytic domain
For assay [11], the target named is Carbonic anhydrase 4 (Homo sapiens) (UniProt P22748).
Sequence of Carbonic anhydrase 4 (Homo sapiens) (P22748 whole entry): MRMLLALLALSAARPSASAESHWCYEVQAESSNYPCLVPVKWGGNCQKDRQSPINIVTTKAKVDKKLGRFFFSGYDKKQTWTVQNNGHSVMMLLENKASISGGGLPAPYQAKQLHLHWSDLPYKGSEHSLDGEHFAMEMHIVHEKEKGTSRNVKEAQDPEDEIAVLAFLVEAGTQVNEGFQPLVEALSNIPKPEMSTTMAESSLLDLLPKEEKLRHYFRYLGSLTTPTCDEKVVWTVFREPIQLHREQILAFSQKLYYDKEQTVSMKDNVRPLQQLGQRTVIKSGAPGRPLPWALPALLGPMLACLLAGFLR
Assay [12] has as its target Carbonic anhydrase 13 (Mus musculus) (UniProt Q9D6N1). Briefly: Inhibition of mouse CA13.
For assay [13], the target named is Carbonic anhydrase 12 (Homo sapiens) (UniProt O43570).
Sequence of Carbonic anhydrase 12 (Homo sapiens) (O43570 whole entry): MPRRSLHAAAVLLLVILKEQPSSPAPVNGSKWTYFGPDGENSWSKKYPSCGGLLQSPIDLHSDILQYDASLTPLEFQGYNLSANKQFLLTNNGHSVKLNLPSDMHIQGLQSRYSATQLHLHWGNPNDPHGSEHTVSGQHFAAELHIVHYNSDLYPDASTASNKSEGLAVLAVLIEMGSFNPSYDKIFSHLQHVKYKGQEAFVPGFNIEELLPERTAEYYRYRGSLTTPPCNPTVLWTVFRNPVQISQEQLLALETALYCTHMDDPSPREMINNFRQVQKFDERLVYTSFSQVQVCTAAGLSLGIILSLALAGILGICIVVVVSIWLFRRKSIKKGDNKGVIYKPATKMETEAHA

Sequence of Carbonic anhydrase 5B, mitochondrial (Homo sapiens) (Q9Y2D0 whole entry): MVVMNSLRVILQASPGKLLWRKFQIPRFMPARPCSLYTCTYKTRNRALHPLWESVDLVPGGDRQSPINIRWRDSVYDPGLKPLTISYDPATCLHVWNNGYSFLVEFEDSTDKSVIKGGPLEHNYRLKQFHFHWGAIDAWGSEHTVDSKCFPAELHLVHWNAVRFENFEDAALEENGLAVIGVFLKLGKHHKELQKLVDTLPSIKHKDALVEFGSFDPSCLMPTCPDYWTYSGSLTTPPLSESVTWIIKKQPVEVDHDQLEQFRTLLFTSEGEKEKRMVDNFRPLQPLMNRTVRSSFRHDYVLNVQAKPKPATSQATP
Sequence of Carbonic anhydrase 6 (Homo sapiens) (P23280 whole entry): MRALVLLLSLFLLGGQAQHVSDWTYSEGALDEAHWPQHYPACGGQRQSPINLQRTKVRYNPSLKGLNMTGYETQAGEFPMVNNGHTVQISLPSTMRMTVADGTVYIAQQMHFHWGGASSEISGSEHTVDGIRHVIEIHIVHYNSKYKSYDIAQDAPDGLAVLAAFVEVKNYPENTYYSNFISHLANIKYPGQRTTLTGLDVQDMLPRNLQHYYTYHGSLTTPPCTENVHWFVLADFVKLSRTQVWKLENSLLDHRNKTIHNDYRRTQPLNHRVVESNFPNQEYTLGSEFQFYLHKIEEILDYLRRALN
Sequence of Carbonic anhydrase 7 (Homo sapiens) (P43166 whole entry): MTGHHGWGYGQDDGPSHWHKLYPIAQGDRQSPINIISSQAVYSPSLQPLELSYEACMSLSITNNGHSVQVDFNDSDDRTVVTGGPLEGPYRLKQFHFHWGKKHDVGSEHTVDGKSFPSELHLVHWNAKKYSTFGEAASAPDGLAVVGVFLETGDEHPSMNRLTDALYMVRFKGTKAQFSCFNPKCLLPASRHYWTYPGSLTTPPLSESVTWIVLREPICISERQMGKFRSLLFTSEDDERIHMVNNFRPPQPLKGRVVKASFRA
Sequence of Carbonic anhydrase 13 (Mus musculus) (Q9D6N1 whole entry, looked up): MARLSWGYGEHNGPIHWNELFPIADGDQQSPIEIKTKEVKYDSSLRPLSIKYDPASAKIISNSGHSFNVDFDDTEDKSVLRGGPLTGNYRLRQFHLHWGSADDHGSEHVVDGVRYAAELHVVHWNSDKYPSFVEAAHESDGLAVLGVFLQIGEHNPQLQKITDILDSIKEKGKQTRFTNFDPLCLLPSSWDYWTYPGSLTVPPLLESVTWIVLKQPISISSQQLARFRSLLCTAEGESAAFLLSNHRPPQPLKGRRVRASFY

On to `CC(=O)/N=c1/sc(S(N)(=O)=O)nn1C`, for which the figures for the Kinact (in assay [1]; in the assay on Helicobacter pylori [2]; in the assay on Helicobacter pylori [3]) were 140 nM, 225 nM and 176 nM, respectively.

Turning to `NS(=O)(=O)c1cc(C(=O)O)c(NCC2CCCO2)cc1Cl` (stereo unspecified), the values for the Kinact in assay [4], in [5] and in [6] were 513 nM, 62 nM and 499 nM, respectively.

Regarding `CCN[C@H]1CN(CCCOC)S(=O)(=O)c2sc(S(N)(=O)=O)cc21`, the Kinact was found to be 460 nM in assay [1]; 30 nM in [7]; 0.9 nM in assay [8]; 210 nM with Helicobacter pylori [2]; 24 nM in assay [9]; 128 nM in the assay on Helicobacter pylori [3]. Besides, the Kinact in assay [6] turned out to be 50 nM.

As to `NS(=O)(=O)c1cc2c(cc1Cl)NC(C(Cl)Cl)NS2(=O)=O` (stereo unspecified), the Kinact came out at 367 nM in assay [10]; 603 nM in assay [7]; 427 nM in [11]; 3660 nM in assay [8]; 4100 nM in [9]; 3.89 µM in assay [12]. Also, the Kinact in assay [13] is 355 nM; in assay [6] it was 4220 nM.
